From PubChem BioAssay AID1963986 (Molecular Pharmacology Branch, DTP, NCI, 2024)
“And” between values parts separate entries of the source, which are not always exact repeats. Equal values may be shown once.

System: 171881-019-R-J1-PDC tumor spheroid viability
Assay: Anticancer human tumor 171881-019-R-J1-PDC patient-derived invasive breast carcinoma cell line growth inhibition [PI3K]
Conditions: spheroids with HUVEC and MSC; for viability, T/C: stronger effect = lower value
Description: Combinatorial screen of targeted agents with the PI3K inhibitors inavolisib, alpelisib, duvelisib, and copanlisib in multi-cell type tumor spheroids
A high-throughput screen of multi-cell type tumor spheroids was designed to identify active combinations of targeted small molecules and PI3K pathway inhibitors. Complex spheroids include a stromal component modeled by human endothelial cells (HUVEC) and fibroblasts modeled by human mesenchymal stem cells (MSCs). The concentration ranges selected for each drug and investigational agent were based upon clinically achievable concentrations if the clinical Cmax of the agent was known.
Compounds. The drugs and investigational agents: inavolisib (NSC800729), alpelisib (NSC765974), duvelisib (NSC772469), copanlisib (NSC816437), ipatasertib (NSC767898), afuresertib (NSC778305), talazoparib (NSC767125), sapanisertib (NSC764658), selumetinib (NSC741078), tovorafenib (DAY101, NSC766906), vemurafenib (NSC761431), ravoxertinib (NSC781343), sotorasib (NSC818433), MRTX1133 (NSC 836407), abemaciclib (NSC 768073), palbociclib (NSC758247), venetoclax (NSC 766270), SY5609 (NSC837396), enzalutamide (NSC755605), and darolutamide (NSC825331), were obtained from the National Cancer Institute (NCI) Developmental Therapeutics Program Chemical Repository. The FDA-approved anticancer drug set is available from the NCI Developmental Therapeutics Program. […] The stock solutions were prepared in dimethyl sulfoxide (DMSO, Sigma-Aldrich, St. Louis, MO, cat. D2650) at 800-fold the tested concentration and stored at -70 degrees C prior to their use. All drugs and investigational agents were tested over a range starting from a high concentration at or near the clinical Cmax and decreasing in half-log increments. If the clinical Cmax for an agent had not been determined, the highest concentration tested was 10 microM.
Cell Culture. All cells were maintained in an incubator at 37 degrees C and 5% CO2 with 95% humidity. The PDC lines were cultured according to standard operating procedures established by the NCI PDMR (https://pdmr.cancer.gov/sops/default.htm). All PDCs were thawed and cultured in Matrigel-coated flasks prepared with a working solution of 1X Ham's F-12 nutrient mix, without supplementation (Invitrogen, Waltham, MA, cat. 11765054), 100 U/mL penicillin-streptomycin (Invitrogen, cat. 15140122), and 2.5% Matrigel (Corning Inc., Corning, NY, cat. 354248) for the first three passages. The 354836-022-R-J1-PDC, 475296-252-R-J1-PDC, and 997726-040-R-J2-PDC lines were cultured in 6A media, which includes advanced DMEM/F-12 (Thermo Fisher Scientific, cat. 12634028), 10 mM HEPES (Thermo Fisher Scientific, cat. 15630080), 1X GlutaMAX supplement (Thermo Fisher Scientific, cat. 35050061), 0.1 mg/mL primocin (InvivoGen, San Diego, CA, cat. ant-pm-2), 10% defined fetal bovine serum, heat inactivated (HyClone Laboratories Inc., Logan, UT, cat. SH30070.03HI), 50% L-WRN conditioned media (ATCC, cat. CRL-3276), 1.25 mM N-Acetyl-L-cysteine (Sigma-Aldrich, cat. A9165), 10 mM nicotinamide (Sigma-Aldrich, cat. N0636), 1X B-27 supplement (Thermo Fisher Scientific, cat. 17504044), 1X N-2 supplement (Thermo Fisher Scientific, cat. 17502048), and 10 microM Y-27632 dihydrochloride (Tocris Bioscience, Bristol, United Kingdom, cat. 1254). The 624824-186-R-J2-PDC line was cultured in 6C/Colon 1B media, which includes all 6A media components plus 50 ng/mL human EGF recombinant protein (Thermo Fisher Scientific, cat. PHG0311). […]

[1] = curve of first compound, second compound 0.0316 µM
[2] = curve of first compound, second compound 0.1 µM
[3] = curve of first compound, second compound 0.316 µM
[4] = curve of first compound, second compound 1 µM
[5] = curve of first compound, second compound 3.16 µM
[6] = curve of first compound, second compound 10 µM
[7] = second compound 0.0316 µM, first compound 0.000316 µM
[8] = second compound 0.0316 µM, first compound 0.001 µM
[9] = second compound 0.0316 µM, first compound 0.00316 µM
[10] = second compound 0.0316 µM, first compound 0.01 µM
[11] = second compound 0.0316 µM, first compound 0.0316 µM
[12] = second compound 0.0316 µM, first compound 0.1 µM
[13] = second compound 0.1 µM, first compound 0.000316 µM
[14] = second compound 0.1 µM, first compound 0.001 µM
[15] = second compound 0.1 µM, first compound 0.00316 µM
[16] = second compound 0.1 µM, first compound 0.01 µM
[17] = second compound 0.1 µM, first compound 0.0316 µM
[18] = second compound 0.1 µM, first compound 0.1 µM
[19] = second compound 0.316 µM, first compound 0.000316 µM
[20] = second compound 0.316 µM, first compound 0.001 µM
[21] = second compound 0.316 µM, first compound 0.00316 µM
[22] = second compound 0.316 µM, first compound 0.01 µM
[23] = second compound 0.316 µM, first compound 0.0316 µM
[24] = second compound 0.316 µM, first compound 0.1 µM
[25] = second compound 1 µM, first compound 0.000316 µM
[26] = second compound 1 µM, first compound 0.001 µM
[27] = second compound 1 µM, first compound 0.00316 µM
[28] = second compound 1 µM, first compound 0.01 µM
[29] = second compound 1 µM, first compound 0.0316 µM
[30] = second compound 1 µM, first compound 0.1 µM
[31] = second compound 3.16 µM, first compound 0.000316 µM
[32] = second compound 3.16 µM, first compound 0.001 µM
[33] = second compound 3.16 µM, first compound 0.00316 µM
[34] = second compound 3.16 µM, first compound 0.01 µM
[35] = second compound 3.16 µM, first compound 0.0316 µM
[36] = second compound 3.16 µM, first compound 0.1 µM
[37] = second compound 10 µM, first compound 0.000316 µM
[38] = second compound 10 µM, first compound 0.001 µM
[39] = second compound 10 µM, first compound 0.00316 µM
[40] = second compound 10 µM, first compound 0.01 µM
[41] = second compound 10 µM, first compound 0.0316 µM
[42] = second compound 10 µM, first compound 0.1 µM
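Also: spheroids exposed to compound for 7 days before viability read.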
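For viability, T/C in this document: 100% = DMSO vehicle-treated spheroids.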

With `CC(=O)c1c(C)c2cnc(Nc3ccc(N4CCNCC4)cn3)nc2n(C2CCCC2)c1=O` + Cc1nc(NC(=O)N2CCCC2C(N)=O)sc1-c1ccnc(C(C)(C)C(F)(F)F)c1 the IC50 [1] was over 100 nM, the IC50 [2] was over 100 nM and the IC50 [3] was over 100 nM. The IC50 [4] was under 0.316 nM, the IC50 [5] was under 0.316 nM and the IC50 [6] was under 0.316 nM. For the same compound, the viability, T/C [7] was 106%, the viability, T/C [8] was 96.3% and the viability, T/C [9] was 91.2%. The viability, T/C [10] was 101%, the viability, T/C [11] was 105% and the viability, T/C [12] was 88.6%. It also gave a viability, T/C [13] of 78.9%, a viability, T/C [14] of 79% and a viability, T/C [15] of 84.8%. The viability, T/C [16] was 88.9%, the viability, T/C [17] was 88.3% and the viability, T/C [18] was 82.6%. For the same compound, the viability, T/C [19] was 57.9%, the viability, T/C [20] was 61.5% and the viability, T/C [21] was 54.3%. It also gave a viability, T/C [22] of 63.2%, a viability, T/C [23] of 63.1% and a viability, T/C [24] of 63.2%. For the same compound, the viability, T/C [25] was 33%, the viability, T/C [26] was 33.7% and the viability, T/C [27] was 37.3%. The viability, T/C [28] was 37.6%, the viability, T/C [29] was 43.8% and the viability, T/C [30] was 38.8%. For the same compound, the viability, T/C [31] was 14.1%, the viability, T/C [32] was 14.3% and the viability, T/C [33] was 16.5%. The viability, T/C [34] was 17.3%, the viability, T/C [35] was 18% and the viability, T/C [36] was 18.4%. It also gave a viability, T/C [37] of 4.32%, a viability, T/C [38] of 3.84% and a viability, T/C [39] of 4.16%. The viability, T/C [40] was 4.4%, the viability, T/C [41] was 5.31% and the viability, T/C [42] was 4.87%.
`CCN1CCN(Cc2ccc(Nc3ncc(F)c(-c4cc(F)c5nc(C)n(C(C)C)c5c4)n3)nc2)CC1` was tested, and the viability, T/C (compound 0.00316 µM) was 98.7% [middle of 4 runs], the viability, T/C (compound 0.01 µM) was 99.5% [middle of 4 runs] and the viability, T/C (compound 0.0316 µM) was 95.2% and 108% (2×) and 103%. The viability, T/C (compound 0.1 µM) was 107% [middle of 4 runs], the viability, T/C (compound 0.316 µM) was 115% [middle of 4 runs] and the viability, T/C (compound 1 µM) was 122% [middle of 4 runs]. The IC50 (curve of compound) was over 1000 nM.
For `Cn1ncc(Cl)c1-c1cc(C(=O)NC(CN)Cc2cccc(F)c2)sc1Cl` (stereo not drawn), the viability, T/C (compound 0.0316 µM) was 80.2% [middle of 4 runs], the viability, T/C (compound 0.1 µM) was 55.6% [middle of 4 runs] and the viability, T/C (compound 0.316 µM) was 34% [middle of 4 runs]. The viability, T/C (compound 1 µM) was 21.5% [middle of 4 runs], the viability, T/C (compound 3.16 µM) was 13.1% [middle of 4 runs] and the viability, T/C (compound 10 µM) was 4.48% [middle of 4 runs]. The IC50 (curve of compound) was 121 nM and 127 nM and 155 nM.
Work on `CC(=O)c1c(C)c2cnc(Nc3ccc(N4CCNCC4)cn3)nc2n(C2CCCC2)c1=O` + CC(Nc1ncnc2nc[nH]c12)c1cc2cccc(Cl)c2c(=O)n1-c1ccccc1 yielded an IC50 [1] of over 100 nM, an IC50 [2] of over 100 nM and an IC50 [3] of over 100 nM. It also gave an IC50 [4] of over 100 nM, an IC50 [5] of over 100 nM and an IC50 [6] of over 100 nM. The viability, T/C [7] was 91.9%, the viability, T/C [8] was 88% and the viability, T/C [9] was 93%. For the same compound, the viability, T/C [10] was 90.6%, the viability, T/C [11] was 102% and the viability, T/C [12] was 92.9%. The viability, T/C [13] was 99.9%, the viability, T/C [14] was 96.8% and the viability, T/C [15] was 98.3%. The viability, T/C [16] was 91.7%, the viability, T/C [17] was 97.6% and the viability, T/C [18] was 88.7%. The viability, T/C [19] was 91%, the viability, T/C [20] was 88.5% and the viability, T/C [21] was 96%. The viability, T/C [22] was 107%, the viability, T/C [23] was 106% and the viability, T/C [24] was 87.8%. The viability, T/C [25] was 104%, the viability, T/C [26] was 87.6% and the viability, T/C [27] was 100%. The viability, T/C [28] was 94.9%, the viability, T/C [29] was 102% and the viability, T/C [30] was 82.2%. It also gave a viability, T/C [31] of 94.2%, a viability, T/C [32] of 90.3% and a viability, T/C [33] of 91.2%. It also gave a viability, T/C [34] of 93.2%, a viability, T/C [35] of 103% and a viability, T/C [36] of 79.1%. For the same compound, the viability, T/C [37] was 62.4%, the viability, T/C [38] was 60.1% and the viability, T/C [39] was 59.1%. For the same compound, the viability, T/C [40] was 63.8%, the viability, T/C [41] was 64.9% and the viability, T/C [42] was 56.9%.
